The values that follow come from article PMC3565020 (ChemMedChem, 2012).

Several values for one entry are separate records, joined by “and”; a condition that tells them apart may be missing. Equal entries are not always repeated. Where two headings read alike, the source gives them in different places. Where only a bound is given, the exact number is not on record here.

The subject of data set [1] is L. donovani axenic amastigotes. The experiment in a line: L. donovani axenic amastigote viability, 72 hour Alamar blue assay. The data set is classed as cell-based, Leishmania donovani.
The subject of data set [2] is L. donovani promastigotes. Kind of data set: L. donovani promastigote viability, 72 hour Alamar blue assay. The data set is classed as cell-based, Leishmania donovani. Conditions: for IC50: read-out: L. donovani Promastigotes IC50.
In another data set the test system is VERO cells. The following applies: previous report; cited from earlier work.
Another data set concerns J-774 murine macrophages. The experiment in a line: Cytotoxicity against murine macrophage cells. Conditions: for Cytotoxicity J-774 murine macrophages CC50 / CC50: J-774, Alamar blue; for CC50: read-out: Cytotoxicity J-774 murine macrophages CC50.
Data set [3] relates to LU-1 human lung carcinoma cell line. The experiment in a line: Sulforhodamine. The data set is classed as cell-based. The following applies: for Cytotoxicity LU-1 CC50 / CC50: LU-1 human lung carcinoma, SRB; for CC50: read-out: Cytotoxicity LU-1 CC50.
A short description of the next data set: Sulforhodamine. The data set is classed as cell-based, human. The following applies: human.
A short description of data set [4]: Cytotoxicity against murine macrophage cells. The following applies: mouse.
The mark [5] stands for this setting: 72 hour Alamar blue, pH 5.5, 37°C.
Setting [6] is: read-out: L. donovani Axenic amastigotes IC50, 72 hour Alamar blue, pH 5.5, 37°C.

As to `COc1ccc2[nH]c3ccc(C=O)cc3c2c1` [Compound 5g], in data set [1] (setting [5]), the “L. donovani Axenic amastigotes IC50” value was “NA^[g] (NA (Not active): IC50 > 40 μg/mL)”. In data set [2] (72 hour Alamar blue, 26°C), the “L. donovani Promastigotes IC50” value turned out to be 27 µg/mL and the IC50 was determined as 120 µM. Moreover, the “CC values in VERO cells” value in the data set on VERO cells is over 102 µg/mL. In addition, the “Cytotoxicity J-774 murine macrophages CC50” value in the data set with J-774 murine macrophages is “NC (NC (Noncytotoxic): CC50 > 40 μg/mL)”. In addition, the “Cytotoxicity LU-1 CC50” value in data set [3] is “NC^[h] (NC (Noncytotoxic): CC50 > 40 μg/mL)”.
As to `O=Cc1cc2c(cc1O)[nH]c1ccc([N+](=O)[O-])cc12` [Compound 6f], the “L. donovani Axenic amastigotes IC50” value in data set [1] (setting [5]) is listed as “NA (NA (Not active): IC50 > 40 μg/mL)”. In data set [2] (72 hour Alamar blue, 26°C), the “L. donovani Promastigotes IC50” value was “NA (NA (Not active): IC50 > 40 μg/mL)”. Moreover, in the data set with J-774 murine macrophages, the “Cytotoxicity J-774 murine macrophages CC50” value came out at 20.0 µg/mL and the half-maximal cytotoxic concentration (CC50) was 78 µM. Also, the “Cytotoxicity LU-1 CC50” value in data set [3] is reported as “NC (NC (Noncytotoxic): CC50 > 40 μg/mL)”.
For the compound `C[C@@H]1[C@H](O)[C@@H](C)/C=C/C=C/C=C/C=C/C=C/C=C/C=C/[C@H](O[C@@H]2O[C@H](C)[C@@H](O)[C@H](N)[C@@H]2O)C[C@@H]2O[C@](O)(C[C@@H](O)C[C@@H](O)[C@H](O)CC[C@@H](O)C[C@@H](O)CC(=O)O[C@H]1C)C[C@H](O)[C@H]2C(=O)O` [Amphotericin B, reference compound], the CC50 in the data set “Sulforhodamine” (LU-1 lung carcinoma cells) was over 40 µg/mL.
In the case of `O=Cc1cc2c(cc1O)[nH]c1ccc(C(F)(F)F)cc12` [Compound 6c], the “L. donovani Axenic amastigotes IC50” value in data set [1] (setting [5]) came out at 6.0 µg/mL. In addition, the IC50 in data set [1] (setting [6]) turned out to be 21.5 µM. Moreover, in data set [2] (72 hour Alamar blue, 26°C), the “L. donovani Promastigotes IC50” value was determined as 7.3 µg/mL and the IC50 was 26.2 µM. In the data set with J-774 murine macrophages, the “Cytotoxicity J-774 murine macrophages CC50” value is 9.8 µg/mL and the CC50 came out at 35.1 µM. In data set [3], the “Cytotoxicity LU-1 CC50” value is 21 µg/mL and the CC50 is 75.2 µM.
For the compound `COc1ccc2[nH]c3cc(OC)c(C=O)cc3c2c1` [Compound 8, 2,6-Dimethoxy-9H-carbazole-3-carbaldehyde], the CC50 (in data set [4] (J774 macrophage cells); in “Sulforhodamine” (LU-1 lung carcinoma cells)) was over 40 µg/mL throughout.
As to `Cn1c2ccccc2c2ccccc21` [Compound 16], the “L. donovani Axenic amastigotes IC50” value in data set [1] (setting [5]) is recorded as “NA (NA (Not active): IC50 > 40 μg/mL)”. Besides, in data set [2] (72 hour Alamar blue, 26°C), the “L. donovani Promastigotes IC50” value was found to be 37.0 µg/mL and the IC50 turned out to be 204 µM. Further, the “Cytotoxicity J-774 murine macrophages CC50” value in the data set with J-774 murine macrophages is given as “NC (NC (Noncytotoxic): CC50 > 40 μg/mL)”. For the same compound, in data set [3], the “Cytotoxicity LU-1 CC50” value is reported as “NC (NC (Noncytotoxic): CC50 > 40 μg/mL)”.
In the case of `CCn1c2ccccc2c2cc(C=O)ccc21` [Compound 14], in data set [1] (setting [5]), the “L. donovani Axenic amastigotes IC50” value is given as “NA (NA (Not active): IC50 > 40 μg/mL)”. Also, in data set [2] (72 hour Alamar blue, 26°C), the “L. donovani Promastigotes IC50” value came to 38.6 µg/mL and the IC50 turned out to be 173 µM. In the data set with J-774 murine macrophages, the “Cytotoxicity J-774 murine macrophages CC50” value was 21 µg/mL and the CC50 is 94.1 µM. In data set [3], the “Cytotoxicity LU-1 CC50” value amounted to 25 µg/mL and the CC50 came to 112 µM.
With `COc1ccc2[nH]c3cc(O)c(CO)cc3c2c1` [Compound 11], the “L. donovani Axenic amastigotes IC50” value in data set [1] (setting [5]) was determined as 10.0 µg/mL. Besides, the IC50 in data set [1] (setting [6]) came out at 41.1 µM. In addition, the “L. donovani Promastigotes IC50” value in data set [2] (72 hour Alamar blue, 26°C) is “NA (NA (Not active): IC50 > 40 μg/mL)”. Besides, the “Cytotoxicity J-774 murine macrophages CC50” value in the data set with J-774 murine macrophages is “NC (NC (Noncytotoxic): CC50 > 40 μg/mL)”. Further, in data set [3], the “Cytotoxicity LU-1 CC50” value was over 60 µg/mL and the CC50 was over 247 µM.
Turning to `COc1ccc2c(c1)c1cc(C=O)c(OC)cc1n2C` [Compound 9, 2,6-dimethoxy-9-methyl-9H-carbazole-3-carbaldehyde], the CC50 (in data set [4] (J774 macrophage cells); in the data set “Sulforhodamine” (LU-1 lung carcinoma cells)) was over 40 µg/mL throughout.
Turning to `O=Cc1cc2c(cc1O)[nH]c1ccccc12` [Compound 6b], in data set [1] (setting [5]), the “L. donovani Axenic amastigotes IC50” value was found to be 11.0 µg/mL. The IC50 in data set [1] (setting [6]) was found to be 52 µM. Also, in data set [2] (72 hour Alamar blue, 26°C), the “L. donovani Promastigotes IC50” value is 35.4 µg/mL and the IC50 stood at 168 µM. In the data set with J-774 murine macrophages, the “Cytotoxicity J-774 murine macrophages CC50” value turned out to be 21 µg/mL and the CC50 came out at 99.4 µM. Moreover, in data set [3], the “Cytotoxicity LU-1 CC50” value was determined as 45 µg/mL and the CC50 was determined as 213 µM.
On to `COc1ccc2[nH]c3cc(O)c(C)cc3c2c1` [Compound 13], for which, in data set [1] (setting [5]), the “L. donovani Axenic amastigotes IC50” value is 11.5 µg/mL. For the same compound, in data set [1] (setting [6]), the IC50 was determined as 50.6 µM. For the same compound, in data set [2] (72 hour Alamar blue, 26°C), the “L. donovani Promastigotes IC50” value was determined as 17.7 µg/mL and the IC50 turned out to be 78 µM. In addition, in the data set with J-774 murine macrophages, the “Cytotoxicity J-774 murine macrophages CC50” value turned out to be 20 µg/mL and the CC50 worked out at 88.1 µM. In data set [3], the “Cytotoxicity LU-1 CC50” value turned out to be 30 µg/mL and the CC50 came to 132 µM.
Consider `N=C(N)c1ccc(OCCCCCOc2ccc(C(=N)N)cc2)cc1` [Pentamidine, reference compound], for which the IC50 amounted to 2.9 µM in data set [1] (setting [6]) and 3.5 µM in data set [2] (72 hour Alamar blue, 26°C). Further, in “Sulforhodamine” (LU-1 lung carcinoma cells), the CC50 was 0.5 µg/mL and 1.5 µM.
Take `O=Cc1cc2c(cc1O)[nH]c1ccc(O)cc12` [Compound 7, 2,6-Dihydroxy-9H-carbazole-3-carbaldehyde]: the 50% cytotoxic concentration (CC50) was 32 µg/mL and 141 µM in data set [4] (J774 macrophage cells); over 40 µg/mL in the data set “Sulforhodamine” (LU-1 lung carcinoma cells).
Regarding `COc1ccc2[nH]c3cc(O)c(C=O)cc3c2c1` [Compound 6a, lansine], the IC50 was 11 µg/mL and 45.6 µM in data set [1] (Leishmania donovani, 72 h, pH 5.5, read-out: L. donovani Axenic amastigotes IC50); 89.1 µM and 21.5 µg/mL in data set [2] (Leishmania donovani, 72 h). The “CC values in VERO cells” value in the data set with VERO cells is over 102 µg/mL. The CC50 is 20 µg/mL and 82.9 µM in data set [4]; 16.5 µg/mL and 68.4 µM in the data set “Sulforhodamine”. Also, in the data set on J-774 murine macrophages (J-774 vs axenic amastigotes), the “SI-2 (Selectivity Index-2) = CC50 (J-774)/IC50 (amastigotes)” value was 2. Moreover, the “SI-1 (Selectivity Index-1) = CC50 (LU-1)/IC50 (amastigotes)” value in data set [3] (LU-1 vs axenic amastigotes) was found to be 2.
For `Oc1ccc2c(c1)[nH]c1ccccc12` [Compound 15], the “L. donovani Axenic amastigotes IC50” value in data set [1] (setting [5]) came out at 10.0 µg/mL. The IC50 in data set [1] (setting [6]) came to 54.6 µM. Also, in data set [2] (72 hour Alamar blue, 26°C), the “L. donovani Promastigotes IC50” value worked out at 28.5 µg/mL and the IC50 was determined as 156 µM. Besides, the “Cytotoxicity J-774 murine macrophages CC50” value in the data set with J-774 murine macrophages is recorded as “NC (NC (Noncytotoxic): CC50 > 40 μg/mL)”. In addition, in data set [3], the “Cytotoxicity LU-1 CC50” value came to 40 µg/mL and the CC50 turned out to be 218 µM.
Take `O=Cc1cc2c(cc1O)[nH]c1ccc(OC(F)(F)F)cc12` [Compound 6d]: in data set [1] (setting [5]), the “L. donovani Axenic amastigotes IC50” value was 2.1 µg/mL. Further, the IC50 in data set [1] (setting [6]) was determined as 7.1 µM. Also, in data set [2] (72 hour Alamar blue, 26°C), the “L. donovani Promastigotes IC50” value turned out to be 3.7 µg/mL and the IC50 was 12.6 µM. Further, in the data set with J-774 murine macrophages, the “Cytotoxicity J-774 murine macrophages CC50” value came to 8.0 µg/mL and the CC50 is 27.1 µM. Besides, in data set [3], the “Cytotoxicity LU-1 CC50” value was 45 µg/mL and the CC50 came out at 152 µM.
